Reference: article PMC10069231 (RSC Advances, 2023)
Values joined by “and” are separate entries in the source; they are usually repeats but may differ in a detail not shown here. Equal values may be shown once. Read-outs that look alike come from different tables or passages of the source.

Legend:
[1] = test system: HepG-2 cell line; assay: MTT cytotoxicity assay, HepG-2; assay type: cell-based, human; conditions: read-out: In vitro cytotoxic activity IC50 HepG-2
[2] = test system: Caco-2 cell line; assay: MTT cytotoxicity assay, Caco-2; conditions: read-out: In vitro cytotoxic activity IC50 Caco-2
[3] = test system: Caco-2 cell line; assay: Flow cytometry cell cycle analysis; assay type: cell-based, human; conditions: Caco-2, treated at IC50 7.83 μM
[4] = test system: Caco-2 cells; assay: Annexin-V/propidium iodide apoptosis assay; assay type: cell-based, human
[5] = molecular target: EGFR^Wt (Homo sapiens, UniProt P00533); assay: EGFR kinase assay kit; assay type: biochemical; conditions: for IC50: Enzyme inhibitory activity IC50 EGFR^Wt, average of three independent tests; for inhibition at 10 µM: read-out: EGFR^Wt Inhibitory%
EGFR^Wt, sequence (P00533 25-1210): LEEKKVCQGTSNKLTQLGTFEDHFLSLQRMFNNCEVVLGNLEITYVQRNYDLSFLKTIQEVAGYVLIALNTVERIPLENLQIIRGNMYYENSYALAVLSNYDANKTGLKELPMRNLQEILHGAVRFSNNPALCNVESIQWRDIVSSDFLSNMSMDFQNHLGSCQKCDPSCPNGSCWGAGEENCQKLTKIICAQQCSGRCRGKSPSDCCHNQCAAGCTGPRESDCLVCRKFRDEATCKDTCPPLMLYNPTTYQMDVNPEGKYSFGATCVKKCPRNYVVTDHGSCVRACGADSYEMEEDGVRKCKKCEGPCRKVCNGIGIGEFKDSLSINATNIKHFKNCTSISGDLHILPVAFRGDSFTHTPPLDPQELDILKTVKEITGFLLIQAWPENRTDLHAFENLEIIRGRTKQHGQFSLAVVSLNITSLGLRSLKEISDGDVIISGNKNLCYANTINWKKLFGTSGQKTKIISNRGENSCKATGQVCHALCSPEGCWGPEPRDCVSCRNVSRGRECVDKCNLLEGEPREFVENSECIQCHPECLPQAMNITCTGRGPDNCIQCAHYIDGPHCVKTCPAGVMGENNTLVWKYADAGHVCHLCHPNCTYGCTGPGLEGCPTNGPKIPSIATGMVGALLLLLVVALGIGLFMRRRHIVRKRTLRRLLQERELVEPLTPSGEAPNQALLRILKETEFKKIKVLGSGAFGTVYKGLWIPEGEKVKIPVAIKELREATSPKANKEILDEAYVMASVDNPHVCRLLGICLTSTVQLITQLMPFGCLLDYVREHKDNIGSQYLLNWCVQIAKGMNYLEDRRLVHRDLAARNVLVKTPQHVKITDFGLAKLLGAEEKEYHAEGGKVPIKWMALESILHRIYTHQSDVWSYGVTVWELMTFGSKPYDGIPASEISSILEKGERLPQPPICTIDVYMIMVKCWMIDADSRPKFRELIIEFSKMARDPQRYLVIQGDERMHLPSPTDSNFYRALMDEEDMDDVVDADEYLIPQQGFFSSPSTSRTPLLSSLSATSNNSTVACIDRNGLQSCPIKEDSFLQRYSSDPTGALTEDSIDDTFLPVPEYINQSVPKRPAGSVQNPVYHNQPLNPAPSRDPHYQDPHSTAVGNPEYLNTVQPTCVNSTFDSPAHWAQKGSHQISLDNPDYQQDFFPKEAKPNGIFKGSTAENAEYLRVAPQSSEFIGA

[6] = molecular target: VEGFR-2 (Homo sapiens, UniProt P35968); assay: biochemical
VEGFR-2, sequence (P35968 20-1356): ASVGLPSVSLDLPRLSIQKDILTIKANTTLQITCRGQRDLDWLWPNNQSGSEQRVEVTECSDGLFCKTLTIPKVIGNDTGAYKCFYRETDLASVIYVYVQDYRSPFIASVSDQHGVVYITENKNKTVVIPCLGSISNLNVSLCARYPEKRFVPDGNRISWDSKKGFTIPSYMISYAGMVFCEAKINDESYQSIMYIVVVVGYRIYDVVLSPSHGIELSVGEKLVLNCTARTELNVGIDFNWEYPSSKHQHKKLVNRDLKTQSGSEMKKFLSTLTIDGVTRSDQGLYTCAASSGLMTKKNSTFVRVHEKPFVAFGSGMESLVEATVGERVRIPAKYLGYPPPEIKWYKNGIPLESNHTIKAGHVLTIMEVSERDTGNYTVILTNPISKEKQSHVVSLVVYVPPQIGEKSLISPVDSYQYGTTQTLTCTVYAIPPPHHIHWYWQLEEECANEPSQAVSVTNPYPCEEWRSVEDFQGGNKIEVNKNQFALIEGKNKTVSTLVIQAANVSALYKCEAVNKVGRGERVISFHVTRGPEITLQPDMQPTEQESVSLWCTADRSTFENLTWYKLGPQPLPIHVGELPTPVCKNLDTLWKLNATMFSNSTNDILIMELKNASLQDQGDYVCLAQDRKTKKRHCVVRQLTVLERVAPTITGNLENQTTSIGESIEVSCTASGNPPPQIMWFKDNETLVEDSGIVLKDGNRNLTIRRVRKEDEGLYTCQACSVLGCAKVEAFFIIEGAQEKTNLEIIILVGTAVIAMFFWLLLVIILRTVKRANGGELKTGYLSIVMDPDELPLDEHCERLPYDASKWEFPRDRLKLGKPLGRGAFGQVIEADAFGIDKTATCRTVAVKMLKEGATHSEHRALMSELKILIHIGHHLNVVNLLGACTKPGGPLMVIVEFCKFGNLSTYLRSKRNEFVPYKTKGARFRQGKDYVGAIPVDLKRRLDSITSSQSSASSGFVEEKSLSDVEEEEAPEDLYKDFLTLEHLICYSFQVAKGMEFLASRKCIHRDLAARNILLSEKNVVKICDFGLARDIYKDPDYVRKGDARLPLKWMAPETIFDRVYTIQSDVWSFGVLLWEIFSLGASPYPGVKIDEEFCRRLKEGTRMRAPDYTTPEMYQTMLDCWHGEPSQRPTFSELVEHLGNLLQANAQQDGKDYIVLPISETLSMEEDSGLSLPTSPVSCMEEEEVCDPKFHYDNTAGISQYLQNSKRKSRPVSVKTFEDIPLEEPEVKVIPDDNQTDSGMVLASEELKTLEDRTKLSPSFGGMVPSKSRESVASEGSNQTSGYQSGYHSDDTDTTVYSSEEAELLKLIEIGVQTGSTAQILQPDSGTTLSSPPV

| Compound | IC50 ([1]; Homo sapiens, HepG2, 24 h) [µM] | IC50 ([2]; Homo sapiens, Caco-2, 24 h) [µM] | other results |
| --- | --- | --- | --- |
| CCOC(=O)c1ccc(-n2c(C)cc(/C=C/c3ccc(OCC)cc3)c(C#N)c2=O)cc1 [Compound 3b, Ethyl (E)-4-(3-cyano-4-(4-ethoxystyryl)-6-methyl-2-oxopyridin-1(2H)-yl)benzoate] | 63.1 ± 3.4 | 75.7 ± 3.5 | – |
| ethyl 4-(3′,5′-dicyano-2′,6′-dihydroxy-1,3-dioxo-1,3-dihydro-1′H-spiro[indene-2,4′-pyridin]-1′-yl)benzoate [Compound 5] | – | – | IC50 ([1]; MTT, 24 h incubation, HepG-2): 10.6 ± 0.8 µM; IC50 ([2]; MTT, 24 h incubation, Caco-2): 9.78 ± 0.7 µM |
| CCOC(=O)c1ccc(N2C(N)=C(C#N)C3(C(=O)Nc4ccccc43)C(C#N)=C2O)cc1 (stereo not shown) [Compound 7, Ethyl 4-(2′-amino-3′,5′-dicyano-6′-hydroxy-2-oxo-1′H-spiro[indoline-3,4′-pyridin]-1′-yl)benzoate] | 8.9 ± 0.6 | 7.83 ± 0.5 | Cell cycle distribution, S phase ([3]; untreated 31.18%): 42.07%; Cell cycle distribution, G0-G1 ([3]; untreated 54.69%): 51.08%; Cell cycle distribution, G2/M ([3]; untreated […]%): 6.85%; Early apoptosis, increase compared to the control ([4]; Caco-2, at IC50): 67.60 folds; Late apoptosis, increase compared to the control ([4]; Caco-2, at IC50): 100.11 folds; Apoptosis Late ([4]; Caco-2, at IC50 for 24 h, control 0.17): 17.02%; Apoptosis Early ([4]; Caco-2, at IC50 for 24 h, control 0.33): 22.31%; Necrosis ([4]; Caco-2, at IC50 for 24 h, control 1.42): 3.02%; Apoptosis Total ([4]; Caco-2, at IC50 for 24 h, control 1.92): 42.35%; IC50 [5]: < 0.25 µM and 0.124 µM; inhibition at 10 µM [5]: 88.4%; IC50 ([6]; Enzyme inhibitory activity IC50 VEGFR-2, average of three independent tests): 0.221 ± 0.009 µM; inhibition at 10 µM ([6]; read-out: VEGFR-2 Inhibitory%): 87% |
| COc1cccc2c1C(=O)c1c(O)c3c(c(O)c1C2=O)C[C@@](O)(C(=O)CO)C[C@@H]3O[C@H]1C[C@H](N)[C@H](O)[C@H](C)O1 [Doxorubicin, reference compound] | 4.5 ± 0.2 | – | IC50 [5]: 0.349 ± 0.016 µM; inhibition at 10 µM [5]: 77.6% |
| CCOC(=O)c1ccc(-n2c(N)c(C#N)c(CC#N)c(C#N)c2=O)cc1 [Compound 10, ethyl 4-(6-amino-3,5-dicyano-4-(cyanomethyl)-2-oxopyridin-1(2H)-yl)benzoate] | 25.2 ± 1.9 | 37.8 ± 2.3 | – |
| CCOC(=O)c1ccc(-n2c(C)cc(/C=C/c3ccc(OC)cc3)c(C#N)c2=O)cc1 [Compound 3a, Ethyl (E)-4-(3-cyano-4-(4-methoxystyryl)-6-methyl-2-oxopyridin-1(2H)-yl)benzoate] | 78.2 ± 3.8 | 84.4 ± 4 | – |
| CCOC(=O)c1ccc(-n2c(-c3ccc(C)cc3)cc(-c3ccc(O)cc3)c(C#N)c2=O)cc1 [Compound 11, Ethyl 4-(3-cyano-4-(4-hydroxyphenyl)-2-oxo-6-(p-tolyl)pyridin-1(2H)-yl)benzoate] | 14.9 ± 1.2 | 19.2 ± 1.4 | – |
| CCOC(=O)c1ccc(-n2c(C)cc(C)c(C#N)c2=O)cc1 [Compound 2, ethyl 4-(3-cyano-4,6-dimethyl-2-oxopyridin-1(2H)-yl)benzoate] | 51.6 ± 2.9 | 41.5 ± 2.5 | – |
| CCOC(=O)C1=C(N)N(c2ccc(C(=O)OCC)cc2)C(O)=C(C#N)C12C(=O)Nc1ccccc12 (stereo not shown) [Compound 8, Ethyl 2′-amino-5′-cyano-1′-(4-(ethoxycarbonyl)phenyl)-6′-hydroxy-2-oxo-1′H spiro[indoline-3,4′-pyridine]-3′-carboxylate] | 8.42 ± 0.7 | 13.6 ± 1.2 | – |
| CCOC(=O)c1ccc(NC(=O)C2=C3C(=Nc4ccccc43)NC2=O)cc1 [Compound 6, ethyl 4-(2-oxo-1,2-dihydropyrrolo[2,3-b]indole-3-carboxamido)benzoate] | 39.3 ± 2.5 | 45.4 ± 2.7 | – |
